pEC50, pIC50, pKi: −log10 of the molar value. One block for each compound: values may come before it.
How the values were obtained:
Cannabinoid receptor 1 [1] = target: T1, Cannabinoid receptor 1 (Homo sapiens, UniProt P21554); test: Agonist activity at CB1 receptor (unknown origin) expressed in CHO cells by calcium mobilization assay; format: functional, cell-based
Cannabinoid receptor 2 [2] = target: T2, Cannabinoid receptor 2 (Homo sapiens, UniProt P34972); test: Agonist activity at CB2 receptor (unknown origin) expressed in CHO cells by calcium mobilization assay; format: functional, cell-based
T2 sequence (P34972 whole entry): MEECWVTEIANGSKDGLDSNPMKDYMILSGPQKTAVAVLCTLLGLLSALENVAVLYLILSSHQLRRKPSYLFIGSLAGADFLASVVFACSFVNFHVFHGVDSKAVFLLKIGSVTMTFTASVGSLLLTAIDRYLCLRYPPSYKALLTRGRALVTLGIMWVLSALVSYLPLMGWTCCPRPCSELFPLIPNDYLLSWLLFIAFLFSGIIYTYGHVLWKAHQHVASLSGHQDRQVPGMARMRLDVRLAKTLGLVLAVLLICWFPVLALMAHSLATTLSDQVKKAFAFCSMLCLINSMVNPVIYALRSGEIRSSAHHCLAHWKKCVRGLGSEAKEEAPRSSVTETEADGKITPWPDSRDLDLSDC

Homo sapiens [3] = species: Homo sapiens; test: Selectivity index, ratio of EC50 for CB1 receptor (unknown origin) to EC50 for CB2 receptor (unknown origin)
Cannabinoid receptor 1 [4] = target: T1, Cannabinoid receptor 1; format: functional, cell-based, CHO
Cannabinoid receptor 2 [5] = target: T2, Cannabinoid receptor 2; test: Antagonist activity at CB2 receptor (unknown origin) expressed in CHO cells up to 10 uM incubated for 10 mins prior to CP55940 addition by calcium mobilization assay; format: functional, cell-based
Homo sapiens [6] = species: Homo sapiens; test: Selectivity index, ratio of IC50 for CB1 receptor (unknown origin) to IC50 for CB2 receptor (unknown origin)
Cannabinoid receptor 2 [7] = target: T2, Cannabinoid receptor 2; test: Binding affinity to CB2 receptor (unknown origin)
Cannabinoid receptor 2 [8] = target: T2, Cannabinoid receptor 2; test: Agonist activity at CB2 receptor (unknown origin) expressed in CHO cells at 10 uM by calcium mobilization assay relative to control; format: functional, cell-based

T1 sequence (P21554 whole entry): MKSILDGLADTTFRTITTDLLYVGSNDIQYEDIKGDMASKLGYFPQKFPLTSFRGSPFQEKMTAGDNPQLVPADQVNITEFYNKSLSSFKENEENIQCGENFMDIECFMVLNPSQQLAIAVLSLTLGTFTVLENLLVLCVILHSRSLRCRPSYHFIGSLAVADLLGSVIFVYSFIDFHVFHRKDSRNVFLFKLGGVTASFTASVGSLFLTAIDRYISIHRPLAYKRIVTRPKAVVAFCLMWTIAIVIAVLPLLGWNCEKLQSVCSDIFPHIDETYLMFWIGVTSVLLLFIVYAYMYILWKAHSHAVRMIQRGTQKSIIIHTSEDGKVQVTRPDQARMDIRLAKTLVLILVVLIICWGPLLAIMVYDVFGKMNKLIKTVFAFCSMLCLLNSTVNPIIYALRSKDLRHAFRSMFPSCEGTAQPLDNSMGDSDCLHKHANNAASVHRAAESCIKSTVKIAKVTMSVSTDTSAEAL

Structure (SMILES): CCCCOc1cccc2cc(C(=O)NC3CCCC3)c(=O)oc12
pEC50 (Cannabinoid receptor 1 [1]): < 5.00
pEC50 (Cannabinoid receptor 2 [2]): 6.10
Ratio EC50 (Homo sapiens [3]): > 12.6

Structure (SMILES): CCCCOc1c(OC)ccc2cc(C(=O)NC(C)C)c(=O)oc12
pIC50 (Cannabinoid receptor 1 [4]): < 5.00
pIC50 (Cannabinoid receptor 2 [5]): 6.79
Ratio IC50 (Homo sapiens [6]): > 61.7

Structure (SMILES): CCCCCOc1c(OC)ccc2c(=O)n(CCc3ccncc3)ccc12
pKi (Cannabinoid receptor 2 [7]): 8.08

pEC50 (Cannabinoid receptor 1 [1]): < 5.00
Activity (Cannabinoid receptor 2 [8]): 37%
Structure (SMILES): CCCCOc1cccc2cc(C(=O)NN3CCCCC3)c(=O)oc12

Structure (SMILES): CCCCOc1cccc2cc(C(=O)NC34CC5CC(CC(C5)C3)C4)c(=O)oc12
pEC50 (Cannabinoid receptor 1 [1]): < 5.00
pEC50 (Cannabinoid receptor 2 [2]): < 5.00

Structure (SMILES): CCCCOc1c(OC)ccc2cc(C(=O)NC(C)CCC)c(=O)oc12 (stereo unspecified)
pIC50 (Cannabinoid receptor 1 [4]): < 5.00
pIC50 (Cannabinoid receptor 2 [5]): 7.72
Ratio IC50 (Homo sapiens [6]): > 526

pKi (Cannabinoid receptor 2 [7]): 7.36
Structure (SMILES): CCCCCOc1cc(/C=C/C(=O)NCCc2ccncc2)ccc1OC

Structure (SMILES): CCCCOc1cccc2cc(C(=O)NC(CC)CC)c(=O)oc12
pEC50 (Cannabinoid receptor 1 [1]): < 5.00
pEC50 (Cannabinoid receptor 2 [2]): 6.89
Ratio EC50 (Homo sapiens [3]): > 76.9

Structure (SMILES): CCCCCOc1c(OC)ccc2c(=O)n(CCc3ccc(O)cc3)ccc12
pKi (Cannabinoid receptor 2 [7]): 8.43

Structure (SMILES): CCCCCOc1c(OC)ccc2c1C(=O)N(CCc1ccc(O)cc1)C2=O
pKi (Cannabinoid receptor 2 [7]): 8.14

Structure (SMILES): CCOc1cccc2cc(C(=O)NC3CCCCC3)c(=O)oc12
pEC50 (Cannabinoid receptor 1 [1]): < 5.00
pEC50 (Cannabinoid receptor 2 [2]): < 5.00

Structure (SMILES): CCCCCOc1cc(/C=C/C(=O)NCCc2ccc(O)cc2)ccc1OC
pKi (Cannabinoid receptor 2 [7]): 8.32

Structure (SMILES): CCCOc1cccc2cc(C(=O)NC3CCCCC3)c(=O)oc12
pEC50 (Cannabinoid receptor 1 [1]): < 5.00
pEC50 (Cannabinoid receptor 2 [2]): < 5.00

Structure (SMILES): CCCCOc1cccc2cc(C(=O)NCC3CC3)c(=O)oc12
pEC50 (Cannabinoid receptor 1 [1]): < 5.00
pEC50 (Cannabinoid receptor 2 [2]): < 5.00

Structure (SMILES): CCCCOc1cc(Br)cc2cc(C(=O)NC(C)C)c(=O)oc12
pIC50 (Cannabinoid receptor 1 [4]): < 5.00
pIC50 (Cannabinoid receptor 2 [5]): < 5.00

Structure (SMILES): CCCOc1cc(Br)cc2cc(C(=O)NC3CCCCC3)c(=O)oc12
pIC50 (Cannabinoid receptor 1 [4]): < 5.00
pIC50 (Cannabinoid receptor 2 [5]): < 5.00

Structure (SMILES): CCCCCCOc1cc(Br)cc2cc(C(=O)NC3CCCCC3)c(=O)oc12
pIC50 (Cannabinoid receptor 1 [4]): < 5.00
pIC50 (Cannabinoid receptor 2 [5]): < 5.00

Structure (SMILES): CCCCCOc1cc(C(=O)NCCc2ccc(O)cc2)ccc1OC
pKi (Cannabinoid receptor 2 [7]): 8.60

pEC50 (Cannabinoid receptor 1 [1]): < 5.00
Activity (Cannabinoid receptor 2 [8]): 42%
Structure (SMILES): O=C(NC1CCCCC1)c1cc2cccc(OCC3CC3)c2oc1=O

Structure (SMILES): CCCCOc1c(OC)ccc2cc(C(=O)NC(C)C(C)C)c(=O)oc12 (stereo unspecified)
pIC50 (Cannabinoid receptor 1 [4]): < 5.00
pIC50 (Cannabinoid receptor 2 [5]): 7.55
Ratio IC50 (Homo sapiens [6]): > 357

pEC50 (Cannabinoid receptor 1 [1]): < 5.00
Activity (Cannabinoid receptor 2 [8]): 34%
Structure (SMILES): CCCCOc1cccc2cc(C(=O)NC3CC3)c(=O)oc12

Structure (SMILES): CCCCCOc1ccc(C(=O)NCCc2ccc(O)cc2)cc1OCCCCC
pKi (Cannabinoid receptor 2 [7]): 9.36

pEC50 (Cannabinoid receptor 1 [1]): < 5.00
Activity (Cannabinoid receptor 2 [8]): 36%
Structure (SMILES): CCCCCCOc1cccc2cc(C(=O)NC3CCCCC3)c(=O)oc12

Structure (SMILES): CCCCOc1cccc2cc(C(=O)N3CCCCC3)c(=O)oc12
pEC50 (Cannabinoid receptor 1 [1]): < 5.00
pEC50 (Cannabinoid receptor 2 [2]): < 5.00

Structure (SMILES): CCCCOc1cc(Br)cc2cc(C(=O)NC3CCCCC3)c(=O)oc12
pIC50 (Cannabinoid receptor 1 [4]): < 5.00
pIC50 (Cannabinoid receptor 2 [5]): 7.05
Ratio IC50 (Homo sapiens [6]): > 111

Structure (SMILES): CCCCCOc1c(OC)ccc2c1CN(CCc1ccc(O)cc1)C2=O
pKi (Cannabinoid receptor 2 [7]): 7.96

Structure (SMILES): CCCCCOc1c(OC)ccc2cc(C(=O)NCc3ccc4c(c3)OCO4)c(=O)oc12
pIC50 (Cannabinoid receptor 1 [4]): < 5.00
pKi (Cannabinoid receptor 2 [7]): 10.06
pIC50 (Cannabinoid receptor 2 [5]): 6.19
Ratio IC50 (Homo sapiens [6]): > 15.5

Structure (SMILES): CCCCCOc1ccc2c(c1OCCCCC)CN(CCc1ccc(N)cc1)C2=O
pKi (Cannabinoid receptor 2 [7]): 9.96

Structure (SMILES): CCCCCOc1c(OC)ccc2c1CCN(CCc1ccc(O)cc1)C2=O
pKi (Cannabinoid receptor 2 [7]): 8.74
